Values of other authors, collected in patent US11648202B2, “Hydroxychloroquine sulfate formulations and methods for preparation and use thereof” (Research Triangle Institute, priority 2017, dated 2023).
Counter-ions that a name gives are not always drawn.

pKa of the amine: about 9.4
SMILES: CCN(CCO)CCCC(C)Nc1ccnc2cc(Cl)ccc12 (stereo not shown) [HCQS, hydroxychloroquine sulfate]
